# Results reported in US5576177A, “Bioassay for reverse transcriptase inhibitors” (St. Jude Children's Research Hospital, priority 1994, dated 1996).
# Like-named read-outs stand apart in the source and are kept apart here.
# Columns and labels:
# [1] = target: HIV-1 reverse transcriptase (HIV-1 M:B_HXB2R, UniProt P04585); assay: Inhibition of HIV-1 reverse transcriptase (TTP incorporation, poly[rA]-oligo[dT]12-18 primer-template); format: biochemical; settings: for inhibition of reverse transcriptase activity (effect on reaction kinetics): at concentrations of up to 10,000 fmols
# Experimental: (§1) Reverse transcriptase assays were performed using substantially purified HIV-1 reverse transcriptase and poly[rA]-oligo[dT]12-18 as primer-template. The reactions were carried out in a total volume of 10 μl; a 4.5 μl volume of the sample was mixed with an equal volume of a reaction mixture to provide a final concentration of 50 mM Tris (pH 8.5), 6 mM MgCl2, 10 mM dithiothreitol (DTT), 2.0 μg bovine serum albumin (BSA), 0.5 μCi TTP, 80 mM KCl, and 0.05% Triton X-100. The reaction was initiated by the addition of 1.0 μl of HIV reverse transcriptase (containing~1 ng protein; from American BioTechnology,Cambridge, Mass.; Cat. No. 26001). After 1 hour incubation at 37° C., the reaction was stopped by the addition of 5.0 μof stop buffer (50 mM EDTA+3% SDS). The reverse transcriptase products (polymerization products) were separated from the unincorporated label by chromatography on Sephadex G-25 (superfine) columns. The fractions corresponding to the void volume were collected and counted by scintillation counting.
# CEM cells [2] = assay: Zidovudine triphosphate level in CEM cells by reverse transcriptase bioassay; format: in vitro ADME; settings: 4 hr incubation with 1 μM zidovudine, n = 3
# Experimental: (§2) Preparation of cell extracts. […] The cell pellets were resuspended in 1 ml of residual media and layered onto 150 μl of nyosil oil, and spun through the oil. The media above the oil layer was removed, and any residual media was removed by rinsing the area above the oil layer by two gentle water washes. Finally, the oil was removed and the cells were extracted with 70% methanol+15 mM Tris-HCl buffer (pH 7.4) for at least 15 min on ice. The debris was removed by centrifugation and the samples stored at -20° C. until required.
# Reverse transcriptase assays were performed using substantially purified HIV-1 reverse transcriptase and poly[rA]-oligo[dT]12-18 as primer-template. The reactions were carried out in a total volume of 10 μl; a 4.5 μl volume of the sample was mixed with an equal volume of a reaction mixture to provide a final concentration of 50 mM Tris (pH 8.5), 6 mM MgCl2, 10 mM dithiothreitol (DTT), 2.0 μg bovine serum albumin (BSA), 0.5 μCi TTP, 80 mM KCl, and 0.05% Triton X-100. […] The fractions corresponding to the void volume were collected and counted by scintillation counting.
# (§3) One fraction was analyzed by HPLC and zidovudine metabolites were quantitated by usual radioisotopic methods.
# Cell extracts were analyzed and quantified by using the different assays as described in Materials and Methods. […]
# CEM cells [3] = assay: Zidovudine triphosphate level in CEM cells by HPLC-radioactive method; format: in vitro ADME; settings: 4 hr incubation with 1 μM zidovudine, n = 1
# Experimental: as §2, §3
# (§4) Buffers used in the separation procedure were A--0.005M ammonium phosphate at pH 4.0+10% methanol and B--0.7M ammonium phosphate at pH 4.6+10% methanol.
# (§5) Cell extracts were analyzed and quantified by using the different assays as described in Materials and Methods. Statistical parameters represent the standard deviation of the mean (δ) of three determinations of parallel samples.
# [4] = system: human immunodeficiency virus reverse transcriptase; settings: cited from earlier work
# [5] = system: peripheral blood mononuclear cells; assay: Intracellular zidovudine triphosphate in peripheral blood mononuclear cells of HIV-infected volunteers (reverse transcriptase bioassay); format: in vivo, human
# Experimental: Peripheral blood mononuclear cell isolation. Heparinized blood from normal human volunteers or asymptomatic HIV seropositive individuals was diluted 1:1 with HBSS, layered onto LSM (Ficoll hypaque) and then separated by centrifugation for 30 min at 400×g. The mononuclear cell layer was removed, washed once with growth media, counted, and pelleted by centrifugation. The cells were then resuspended in growth medium (RPMI containing 10% fetal calf serum) and the residual erythrocytes lysed by the addition of 3 volumes of cold water for 30 seconds. Erythrocyte lysis was stopped by the addition of 1 volume of 0.6M sodium chloride, and the mononuclear cells were pelleted by centrifugation.
# Uncultured peripheral blood mononuclear cells from zidovudine-treated patients were resuspended in 1 ml of media and transferred to a 1.5 ml centrifuge tube, spun 1 min at 14,000 rpm, the media removed, and pulsed again to allow removal of any residual media. The cells were extracted for at least 15 min with 200 μl of ice cold 70% methanol per 1×10^7 cells. The cell debris was removed by centrifugation for 15 min at 14,000 rpm and the supernate stored in -20° C. until required for analysis. Prior to use, the extracts were dried under vacuum and resuspended in 50 μl of 5 mM Tris-HCl buffer (pH 8.5); extracts from 0.5×10^7 CEM cells or 1×10^7 cultured peripheral blood mononuclear cells were reconstituted in 200 μl buffer.
# as §1
# The zidovudine-free peripheral blood mononuclear cells from each individual at baseline (untreated) served as the cell background to construct the standard curve for zidovudine triphosphate determination.
# (§6) Individuals in this study were HIV-infected individuals recruited from an area clinic. […] CD4 and CD8 cell counts were determined from baseline samples.
# [6] = system: peripheral blood mononuclear cells; settings: AIDS patients receiving 300 mg oral zidovudine; cited from earlier work
# CEM cells [7] = assay: Zidovudine triphosphate level in CEM cells by HPLC-RIA; format: in vitro ADME; settings: 4 hr incubation with 1 μM zidovudine, n = 3
# Experimental: as §3, §5
# CEM cells were extracted in the same manner as cultured peripheral blood mononuclear cell samples (see Materials and Methods). […] The samples were cleaned up using Waters Sep-pak C-18 cartridges. The cartridges were conditioned with 10% methanol and then rinsed with water. Each sample was applied separately and eluted with 50% methanol. The samples were vacuum desiccated to a volume under 500 μl and further purified with a 250 mm Whatman ODS-3 column. Buffer A was 35% methanol and buffer B was 50% methanol. The gradient was 15 min at 0% B followed by 20 min at 100% B with a flow rate of 0.5 ml/min and fractions collected every min. The fractions containing zidovudine were pooled and vacuum desiccated to dryness. […] The antibody was diluted 1:3 and preincubated with the sample 2 hours.
# [8] = system: peripheral blood mononuclear cells; assay: Phosphorylation of zidovudine in peripheral blood mononuclear cells in vitro; format: in vitro ADME, human; settings: proliferating compared to resting cells; 1 μM [^3 H]zidovudine
# Experimental: Culture of human peripheral blood mononuclear cells. The peripheral blood mononuclear cells were suspended in growth media and transferred to plastic tissue culture flasks. The monocyte/macrophage cells were allowed to adhere to the flask for at least 60 min after which the non-adherent cells comprises primarily of lymphocytes were transferred to a new flask. The cells were stimulated by addition of 5 μg/ml of PHA-P and 10 units/ml of IL-2 and incubated for 72 hours at 37° C. prior to use. Fresh media was added every 24 hours to maintain the IL-2 concentration. If quiescent cells were required the PHA-P and IL-2 were omitted and the cells were used the following day.
# as §2, §4
# [9] = Plasma zidovudine concentrations and pharmacokinetics in HIV-infected volunteers (RIA); format: in vivo, human; settings: for concentration at 1 h: po; for AUC: read-out: AUC (area under the curve), median; for half-life: read-out: t1/2 (half life), median (converted)
# Experimental: Pharmacokinetic studies in patients. To assess the utility and sensitivity of the bioassay of the invention in patients, a clinical study was performed. The study was approved by the Institutional Review Board of St. Jude Children's Research Hospital and informed consent was obtained from each individual according to institutional procedures.
# as §6
# Prior distributions for the parameters were assumed to be log normally distributed with known but independent variances (i.e., no parameter covariance) and were taken from previous studies in similar patients (Flether et al., Pharmacotherapy 12:429-434 (1992)).
# Plasma samples were heat inactivated at 56° C. for 4 hours prior to assay. The samples were diluted to obtain values within a standard curve range of 10-200 ng/ml with 200 μl of sample. […] Five-hundred μl of a secondary antibody precipitating complex was added and incubated for 20 min at room temperature. The resultant mixtures were centrifuged, the supernate decanted, and the precipitate counted using an LKB gamma counter connected to an IBM PC computer with an RIA Calif. LC software program.
# [10] = 10 to 500 fmol, no cell extract
# [11] = spiked with extract of peripheral blood mononuclear cells (about 10^6 cells)
# [12] = human, plasma, 100 mg single oral dose
# [13] = human, plasma, 500 mg single oral dose
compound,measurement,setting,value
"Cc1cn([C@H]2C[C@H](O)[C@@H](COP(=O)(O)O)O2)c(=O)[nH]c1=O [thymidine monophosphate (TMP), thymidine monophosphate]",inhibition of reverse transcriptase activity (effect on reaction kinetics),[1],did not affect the reaction kinetics
Cc1cn([C@H]2C[C@H](N=[N+]=[N-])[C@@H](CO[P@](=O)(O)O[P@](=O)(O)OP(=O)(O)O)O2)c(=O)[nH]c1=O [zidovudine triphosphate],Zidovudine Triphosphate,CEM cells [2],1.39 ± 0.17 pmol/10^6 cells
same,Zidovudine Triphosphate,CEM cells [3],1.42 pmol/10^6 cells
same,inhibition of HIV reverse transcriptase,[4],potent inhibitor
same,reverse transcriptase chain termination,[4],causes reverse transcriptase chain termination
same,proportion of median plateau values,[5]; 500 mg vs 100 mg,1.7
same,time course of zidovudine triphosphate values,[5]; 1 to 6 hours after zidovudine,increased from 1 to 2 hours (Table 3 (below)) and then remained at a plateau value through 6 hours
same,measurability of zidovudine triphosphate after zidovudine administration,[5]; 100 or 500 mg zidovudine,could be measured in all 12 volunteers
same,Median Ratio (500/100),[5]; 1 h,8.4
same,Median Ratio (500/100),[5]; 2 h,1.6
same,Median Ratio (500/100),[5]; 4 h,1.5
same,Median Ratio (500/100),[5]; 6 h,2.1
same,% CV range of intracellular zidovudine triphosphate,[5]; after 100 or 500 mg zidovudine,52-157%
same,zidovudine triphosphate level relative to the patent's results,[6],10 -fold higher
same,coefficient of regression of linear inhibition kinetics,[1]; [10],0.99
same,inhibition kinetics of HIV reverse transcriptase,[1]; [10],linear inhibition kinetics
same,R of linear inhibition kinetics,[1]; [11],> 0.98
same,inhibition kinetics of HIV reverse transcriptase,[1]; [11],good linear kinetics
same,Zidovudine Triphosphate,CEM cells [7],1.50 ± 0.65 pmol/10^6 cells
"Cc1cn([C@H]2C[C@H](N=[N+]=[N-])[C@@H](CO)O2)c(=O)[nH]c1=O [zidovudine, 3'-azido-3'-deoxythymidine]",phosphorylation rate of zidovudine,[8],high phosphorylation rate
same,Plasma Zidovudine,"[9]; 100 mg single oral dose, 6 h, #ND = plasma zidovudine concentration below standard curve in 4 of 5 patients",ND#
same,difference of CLo between dose groups,"[9]; 100 mg vs 500 mg, p>0.2 by Mann-Whitney U test",not significantly different
same,concentration at 1 h,"[9]; human, plasma, 100 mg dose",1790 nM
same,concentration at 1 h,"[9]; human, plasma, 500 mg dose",6300 nM
same,concentration at 2 h,[9]; [12],760 nM
same,concentration at 4 h,[9]; [12],260 nM
same,AUC,[9]; [12],1200 ng·h/mL
same,half-life,[9]; [12],1.29 h
same,concentration at 2 h,[9]; [13],3000 nM
same,concentration at 4 h,[9]; [13],900 nM
same,concentration at 6 h,"[9]; human, plasma, 500 mg single oral dose, 6 h",360 nM
same,AUC,[9]; [13],4200 ng·h/mL
same,half-life,[9]; [13],1.07 h
Cc1cn([C@H]2C[C@H](N=[N+]=[N-])[C@@H](COP(=O)(O)O)O2)c(=O)[nH]c1=O [zidovudine-MP],inhibition of reverse transcriptase activity (effect on reaction kinetics),[1],did not affect the reaction kinetics
